Measurements reported in US9707212B2, “S-nitrosoglutathione reductase inhibitors” (Nivalis Therapeutics, Inc., priority 2010, dated 2017).

Columns and labels:
[1] = Mouse pharmacokinetic (PK) study; assay type: in vivo, male BALB/c mice; conditions: mice; for bioavailability: male, BALB/c, mouse, plasma, PO 10 mg/kg, IV 2 mg/kg
Description: The mouse was used to determine the pharmacokinetics of compounds of the invention. This species is widely used to assess the bioavailability of compounds by administering both oral (PO) and intravenous (IV) test articles. Efficacy of the compounds of the invention was compared by assessing plasma exposure in male BALB/c mice either via IV or PO administration at the times of peak activity.
Compounds of the invention were reconstituted in a phosphate buffered saline (PBS)/10% Solutol (HS 15) clear solution resulting in a concentration of 0.2 mg/ml and administered to mice (2 mg/kg) as a single IV dose. Animals were dosed via the lateral tail vein. Blood samples were collected at designated time points (0.083, 0.25, 0.5, 1, 2, 4, 8, 16, 24 hours) by cardiac puncture under isoflurane anesthesia (up to 1 ml blood per animal). The blood was collected into tubes containing Li-Heparin. The blood samples were kept on ice until centrifugation within approximately 30 minutes of collection. The plasma was transferred into labeled polypropylene tubes and frozen at −70° C. until analyzed by LC/MS/MS.
The compounds of the invention were reconstituted in 40% Propylene Glycol/40% Propylene Carbonate/20% of a 5% Sucrose clear solution resulting in a concentration of 2 mg/ml and administered to mice (10 mg/kg) as a single oral dose via gavage. Blood samples were collected at 0.25, 0.5, 1, 2, 4, 8, 12, 16, 20 and 24 hours post dose by cardiac puncture under isoflurane anesthesia. The blood was collected in tubes containing Li-Heparin. The blood samples were kept on ice until centrifugation within approximately 30 minutes of collection. The plasma was transferred into labeled polypropylene tubes and frozen at −70° C. until analyzed by LC/MS/MS.
Plasma samples at each time point were analyzed using a LC-MS/MS with a lower limit of quantification (LLOQ) of 1 ng/ml. Plasma was analyzed to determine the amount of the compound of the invention in each sample and regression curves generated for each compounds of the invention in the relevant matrixes.
WinNonlin analysis was used for calculating PK parameters for both the IV and PO administrations: • PK parameters for IV portion—AUClast; AUCINF; T1/2; Cl; Vss; Cmax; MRT • PK parameters for PO portion—AUClast; AUCINF; T1/2; Cmax; Cl, MRT.
In addition to the above PK parameters, bioavailability (% F) was calculated.

[2] = tested on: acute DSS-induced IBD; experiment: Acute prophylactic model of DSS-induced IBD in mice; assay type: in vivo, male C57Bl/6 mice; conditions: for effect on colon injury: mouse model of acute DSS-induced IBD; for decrease of percent of mice with severe colon injury scores via endoscopy, of vehicle control / decrease of percent of mice with severe colon injury scores via histopathology, of vehicle control: prophylactic regimen
Description: Acute and chronic models of dextran sodium sulfate (DSS)-induced IBD in mice were used to explore efficacy of GSNORi against this disease. Acute and chronic DSS-induced IBD are widely used and well characterized models that induce pathological changes in the colon similar to those observed in the human disease. In these models and in human disease, epithelial cells within the crypts of the colon are disrupted, leading to dysfunction of the epithelial barrier and the ensuing tissue inflammation, edema, and ulceration. GSNORi therapy may benefit IBD by restoring s-nitrosoglutathione (GSNO) levels, and thus prevent or reverse the epithelial barrier dysfunction. Experimental IBD was induced by administration of DSS in the drinking water of male C57Bl/6 mice (N=8 to 10 mice per group) for 6 consecutive days. GSNORi was dosed orally at doses of 0.1 to 10 mg/kg/day for 10 days starting two days prior to and continuing two days post DSS exposure. Two days post DSS exposure, the effect of GSNORi was assessed in a blinded fashion via endoscopy and histopathology using a five point scale ranging from a score=0 (normal tissue) through a score=4 (ulcerative tissue damage and marked pathological changes). Levels of circulating cytokines involved in inflammatory pathways were also assessed. The effect of GSNORi was compared to vehicle treated controls. The corticosteroid, prednisolone, was used as the positive control in this study and was administered daily at 3 mg/kg/day via oral dosing. Naïve mice (N=5) were also assessed as a normal tissue control.

[3] = tested on: cigarette smoke-induced COPD; experiment: Acute (4 day) cigarette smoke exposure COPD model; assay type: in vivo, female C57Bl/6 mice; conditions: oral 10 mg/kg/day for 7 days, acute 4 day smoke model
Description: The efficacy of GSNOR inhibitors was assessed in a mouse model of chronic obstructive pulmonary disease (COPD) induced by short duration (4 days or 11 days) of exposure to cigarette smoke. Infiltration of inflammatory cells into the bronchoalveolar lavage fluid (BALF) and BALF levels of chemokines involved in inflammation and tissue turnover/repair were measured to assess the influences of GSNOR inhibitors on some of the early events associated with the initiation and progression of COPD.
Efficacy of GSNOR inhibitors against COPD was explored using acute (4 day) and subchronic (11 day) models of cigarette smoke-induced COPD in mice. […] In animal models, changes in lung pathology are only evident after extended (several months) duration of exposure to cigarette smoke, thus making chronic models prohibitive as effective screening tools. More recently, models exploring inflammatory responses after short duration (2 weeks or less) of smoke exposure in mice have been utilized as tools for screening efficacy and mechanisms of action of novel therapeutics against COPD. The key roles of inflammation in the initiation and progression of COPD, make these short duration models relevant for initial tests of efficacy of novel therapeutics.
Female C57Bl/6 mice (N=8 per group) were exposed to cigarette smoke using a whole body exposure chamber. Mice were exposed daily for 4 consecutive days to 4 cycles of smoke from 6 sequential cigarettes (Kentucky 3R4F without filter) with a 30 minute smoke free interval between cycles. GSNOR inhibitors were administered daily via oral dosing at 10 mg/kg/day for 7 days starting 2 days prior to smoke exposure and continuing 1 day post-exposure. The effects of GSNOR inhibitors were assessed by quantitating the numbers of total cells, leukocytes, and leukocytes differentials in the BALF via light microscopy and the levels of BALF chemokines via ELISA at approximately 24 h after the last smoke exposure. The effect of GSNOR inhibitors were compared to vehicle treated controls. The PDE4 inhibitor, roflumilast, was used as the positive control for the study. A group of naïve mice (N=8) was exposed to air and used as a negative control for the study.

[4] = tested on: cigarette smoke-induced COPD; experiment: Subchronic (11 day) cigarette smoke exposure COPD model; assay type: in vivo, female C57Bl/6 mice; conditions: oral 1 mg/kg/day for 11 days, subchronic 11 day model
Description: The efficacy of GSNOR inhibitors was assessed in a mouse model of chronic obstructive pulmonary disease (COPD) induced by short duration (4 days or 11 days) of exposure to cigarette smoke. Infiltration of inflammatory cells into the bronchoalveolar lavage fluid (BALF) and BALF levels of chemokines involved in inflammation and tissue turnover/repair were measured to assess the influences of GSNOR inhibitors on some of the early events associated with the initiation and progression of COPD. Efficacy of GSNOR inhibitors against COPD was explored using acute (4 day) and subchronic (11 day) models of cigarette smoke-induced COPD in mice. […] In animal models, changes in lung pathology are only evident after extended (several months) duration of exposure to cigarette smoke, thus making chronic models prohibitive as effective screening tools. […] The effects of GSNOR inhibitors were assessed by quantitating the number of total cells, and leukocytes differentials in the BALF via light microscopy at 24 h after the last exposure. The effect of GSNOR inhibitors were compared to vehicle treated controls and expressed as percent inhibition of the cigarette smoke induced increases in BALF cell numbers. […]

[5] = oral 10 mg/kg/day for 10 consecutive days

Row | SMILES | bioavailability [1] | effect on colon injury [2] | decrease of percent of mice with severe colon injury scores via endoscopy, of vehicle control [2, 5] | decrease of percent of mice with severe colon injury scores via histopathology, of vehicle control [2, 5] | further results
1 | O=c1c(-c2ccc(-c3nnn[nH]3)cc2)c(C(F)(F)F)oc2cc(O)ccc12 [Example 1, 3-(4-(1H-tetrazol-5-yl)phenyl)-7-hydroxy-2-(trifluoromethyl)-4H-chromen-4-one] | 4 to 41% | attenuated colon injury | 75% | 17% | 
2 | O=c1c2ccc(O)cc2oc(C(F)(F)F)c1[C@H]1CC[C@H](C(=O)O)CC1 [Example 3, (trans)-4-(7-hydroxy-4-oxo-2-(trifluoromethyl)-4H-chromen-3-yl)cyclohexanecarboxylic acid] | 4 to 41% | attenuated colon injury |  |  | effect on BALF chemokines [3]: restored BALF chemokines towards levels observed in naïve mice; effects on BALF cells compared with roflumilast [3]: comparable to or greater than those observed for roflumilast; inhibition of smoke-induced increase in eosinophils in BALF [3]: 100%; inhibition of smoke-induced increase in leukocytes in BALF [3]: 100%; inhibition of smoke-induced increase in macrophages in BALF [3]: 100%; inhibition of smoke-induced increase in neutrophils in BALF [3]: 100%; inhibition of smoke-induced increase in total cells in BALF [3]: 100%; decrease of percent of mice with severe colon injury scores via endoscopy, of vehicle control ([2]; oral 0.1 mg/kg/day for 10 consecutive days): 38%; decrease of percent of mice with severe colon injury scores via endoscopy, of vehicle control ([2]; oral 1 mg/kg/day for 10 consecutive days): 25%
3 | O=c1[nH]c(-c2ccc(-c3c(C(F)(F)F)oc4cc(O)ccc4c3=O)cc2)no1 [Example 9, 3-(4-(7-hydroxy-4-oxo-2-(trifluoromethyl)-4H-chromen-3-yl)phenyl)-1,2,4-oxadiazol-5(4H)-one] | 4 to 41% |  |  |  | 
4 | Cc1sc2cc(O)ccc2c(=O)c1-c1ccc(-c2nnn[nH]2)cc1 [Example 12, 3-(4-(1H-tetrazol-5-yl)phenyl)-7-hydroxy-2-methyl-4H-thiochromen-4-one] | 4 to 41% |  |  |  | 
5 | O=C(O)c1ccc(-c2c(C(F)(F)F)oc3cc(O)ccc3c2=O)c(F)c1 [Example 16, 3-fluoro-4-(7-hydroxy-4-oxo-2-(trifluoromethyl)-4H-chromen-3-yl)benzoic acid] | ~44% | attenuated colon injury | 58% | 15% | effects on BAL cells compared with roflumilast [4]: comparable to those of roflumilast
6 | O=C(O)c1ccc(-c2c(C(F)(F)F)oc3cc(O)ccc3c2=O)cc1 [comparator compound, 4-(7-hydroxy-4-oxo-2-(trifluoromethyl)-4H-chromen-3-yl)benzoic acid, reference compound] | ~17% |  |  |  | clearance (Cl) relative to Example 16 [1]: about three times faster than Example 16
